Source: ChEMBL document CHEMBL5729348, “Heterocyclic compounds for the inhibition of PASK” (2022)

Biological target: PAS domain-containing serine/threonine-protein kinase (Homo sapiens, UniProt Q96RG2)
Experiment: PAS Kinase FRET Assay: The aim of the FRET assay is to determine the inhibition potential of test compounds on targeted kinase. This assay platform provides a homogenous screening method for measuring kinase activity by quantitating the amount of phospho-substrate in solution following a kinase reaction.In the presence of kinase and ATP, the Ulight-peptide is phosphorylated and captured by an anti-phospho-substrate antibody, which brings the Eu chelate donor and Ulight acceptor dyes into close proximity. Upon excitation at 340 nm, the Eu chelate transfers its energy to the Ulight dye, resulting in a fluorescent light emission at 665 nm.Titration of kinase at 1 mM ATP was achieved via the following protocol. After making serial three-fold dilutions of PASK (Invitrogen) in reaction buffer across the plate; 5 μl of kinase dilution and 5 μl substrate/ATP mix were added to the wells of the white Optiplate-384 (PerkinElmer). The contents of the plate were and incubated at RT for 1 h. The reaction was stopped by adding 5 μl of stop solution to each test well followed by mixing and incubation at RT for 10 minutes. 5 μl of detection mix (detection antibody diluted in detection buffer) was added; the contents of the plate were mixed and then incubated in the dark for 1 hour at RT. The signal was recorded at TR-FRET mode (665 nm/615 nm). The results were graphed to calculate the EC50. […]

PAS domain-containing serine/threonine-protein kinase, sequence (Q96RG2 whole entry, the tested form may be a part): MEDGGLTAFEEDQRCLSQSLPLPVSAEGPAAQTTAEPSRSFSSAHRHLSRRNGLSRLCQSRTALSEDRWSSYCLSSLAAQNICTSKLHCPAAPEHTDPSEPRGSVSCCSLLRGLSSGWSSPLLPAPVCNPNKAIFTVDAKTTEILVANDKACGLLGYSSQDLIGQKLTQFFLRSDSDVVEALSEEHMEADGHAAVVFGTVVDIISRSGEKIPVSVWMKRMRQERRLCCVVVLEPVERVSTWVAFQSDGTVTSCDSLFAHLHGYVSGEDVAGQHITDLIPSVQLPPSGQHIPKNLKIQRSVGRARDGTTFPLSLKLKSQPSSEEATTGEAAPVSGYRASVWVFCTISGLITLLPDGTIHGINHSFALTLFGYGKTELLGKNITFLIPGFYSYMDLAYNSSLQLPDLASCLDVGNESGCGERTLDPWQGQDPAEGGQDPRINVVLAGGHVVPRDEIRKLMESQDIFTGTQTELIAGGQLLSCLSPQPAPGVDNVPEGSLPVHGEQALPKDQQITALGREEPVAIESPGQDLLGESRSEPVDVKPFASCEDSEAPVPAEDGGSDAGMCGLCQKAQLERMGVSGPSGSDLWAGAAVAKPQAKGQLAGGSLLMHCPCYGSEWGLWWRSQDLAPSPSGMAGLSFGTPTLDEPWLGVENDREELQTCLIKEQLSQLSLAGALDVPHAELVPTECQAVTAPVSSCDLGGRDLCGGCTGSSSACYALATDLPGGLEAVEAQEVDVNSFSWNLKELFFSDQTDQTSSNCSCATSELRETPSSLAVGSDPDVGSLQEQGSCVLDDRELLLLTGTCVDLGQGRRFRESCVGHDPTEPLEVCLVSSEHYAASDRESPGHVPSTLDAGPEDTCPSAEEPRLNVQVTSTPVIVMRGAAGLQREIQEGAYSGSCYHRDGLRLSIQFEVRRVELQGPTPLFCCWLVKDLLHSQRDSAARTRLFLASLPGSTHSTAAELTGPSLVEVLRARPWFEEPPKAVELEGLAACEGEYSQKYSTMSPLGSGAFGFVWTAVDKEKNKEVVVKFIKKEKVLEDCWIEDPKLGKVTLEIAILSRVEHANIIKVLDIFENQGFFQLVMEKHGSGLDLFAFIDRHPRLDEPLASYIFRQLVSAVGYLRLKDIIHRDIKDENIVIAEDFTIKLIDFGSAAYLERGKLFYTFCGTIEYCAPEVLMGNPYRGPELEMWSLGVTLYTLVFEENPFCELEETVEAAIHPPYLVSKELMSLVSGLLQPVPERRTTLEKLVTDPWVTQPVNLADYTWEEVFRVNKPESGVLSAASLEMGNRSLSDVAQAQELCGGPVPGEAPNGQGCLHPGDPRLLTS

## CN(c1nc2cc(C(=O)O)ccc2nc1-c1ccc(F)cc1)C1CCNCC1
  IC50: < 10 µM
